What was measured:
Jurkat IL-2 = Jurkat IL-2 assay (IL-2 inhibition by ELISA after anti-CD3/28/2 stimulation); type: cell-based; conditions: Jurkat clone E6.1, IL-2 in supernatant, 30 min pre-incubation, anti-CD3/28/2 stimulation 24 hours, mean if tested more than once
Description: Inhibition was determined in a cell-based assay using Jurkat (ATCC, clone E6.1), an immortalized T-cell line, exposed to a dose response of compound and assessed for viability, and IL-2 inhibition by ELISA. Cells were cultured in RPMI/10% FBS (Invitrogen 11875093, Atlanta Biologicals S12450H), maintained below 3E6/mL and only used in assays while below passage 25. Compounds were stamped by ECHO onto 384w plates (PerkinElmer Culturplate, 6007680). The cells were plated in fresh media on top of compound and incubated for 30 minutes before stimulation with soluble anti-CD3/28/2 (Stemcell, 10970) for 24 hours. Supernatant was collected and assessed for IL-2 (MSD, 384w, L21SA-1). To assess viability of cells treated with compound, cells were lysed with CTG reagent (Promega, G7570), and measured by luminometer. […] IC50s calculated using 4-parameter fit in GraphPad Prism.
“N/A” indicates not tested. For a compound that was tested in more than one experiment, the result shown represents the mean value.

full length MALT1 = target: T1, full length MALT1 (Homo sapiens, UniProt Q9UDY8); test: MALT1 biochemical assay (fluorogenic peptide substrate cleavage); conditions: full length MALT1, 15 nM enzyme, 30 μM peptide substrate, 30 min pre-incubation, 60 min reaction; mean if tested more than once
T1 construct: measuring enzymatic activity of full length MALT1 at varying concentrations of compound
T1 sequence (Q9UDY8 1-824): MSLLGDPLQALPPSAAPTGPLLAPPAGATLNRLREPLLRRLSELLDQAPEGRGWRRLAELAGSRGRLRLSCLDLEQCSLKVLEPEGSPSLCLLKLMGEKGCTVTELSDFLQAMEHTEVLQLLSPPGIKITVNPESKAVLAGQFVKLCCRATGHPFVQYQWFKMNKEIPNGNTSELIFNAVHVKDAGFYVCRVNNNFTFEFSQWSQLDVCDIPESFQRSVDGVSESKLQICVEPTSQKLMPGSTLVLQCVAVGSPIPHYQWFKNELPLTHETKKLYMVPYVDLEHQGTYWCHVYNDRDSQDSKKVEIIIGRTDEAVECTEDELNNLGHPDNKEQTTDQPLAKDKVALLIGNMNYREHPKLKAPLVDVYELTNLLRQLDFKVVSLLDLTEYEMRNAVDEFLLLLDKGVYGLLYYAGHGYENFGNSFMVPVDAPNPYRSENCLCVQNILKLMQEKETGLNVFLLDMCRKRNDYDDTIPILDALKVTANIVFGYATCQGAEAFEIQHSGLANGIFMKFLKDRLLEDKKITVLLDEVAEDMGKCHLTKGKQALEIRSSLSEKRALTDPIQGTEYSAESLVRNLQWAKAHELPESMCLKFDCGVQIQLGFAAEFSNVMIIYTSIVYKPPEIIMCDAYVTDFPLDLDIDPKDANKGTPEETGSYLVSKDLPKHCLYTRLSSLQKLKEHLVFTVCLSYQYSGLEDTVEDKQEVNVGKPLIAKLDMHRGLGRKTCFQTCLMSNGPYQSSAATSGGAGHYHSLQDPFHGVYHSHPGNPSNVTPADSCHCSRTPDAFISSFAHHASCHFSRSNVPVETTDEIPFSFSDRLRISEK
Description: Inhibitor potency was evaluated by measuring enzymatic activity of full length MALT1 at varying concentrations of compound. The enzymatic assay consists of a single substrate reaction that monitors the release of a fluorescent dye upon cleavage of the peptide substrate. […] The assay buffer consists of 50 mM Hepes, pH 7.5, 0.8 M sodium citrate, 1 mM DTT, 0.004% tween-20, and 0.005% bovine serum albumin (BSA). […] The reaction was quenched after 60 minutes with the addition of iodoacetate at a final concentration of 10 mM. Total fluorescence was measured using an Envision (PerkinElmer) with fluorescence excitation at 485 nm and emission at 520 nm.
The reaction was initiated with the addition of 10 μL of peptide substrate. […] IC50 values were calculated by fitting the concentration-response curves to a four-parameter logistic equation in GraphPad Prism.
“N/A” indicates not tested.

IC50 (Jurkat IL-2; Homo sapiens) [nM]	IC50 (full length MALT1) [nM]	IC50 (Jurkat IL-2) [nM]	Molecule
< 100	< 100		CN(C(=O)[C@H]1CC[C@H](C(=O)O)CC1)[C@@H](c1ccc(Nc2cnn(-c3ccccc3)c2C(F)(F)F)cc1)C(F)(F)F [Compound 2.1, (1S,4r)-4-(methyl((S)-2,2,2-trifluoro-1-(4-((1-phenyl-5-(trifluoromethyl)-1H-pyrazol-4-yl)amino)phenyl)ethyl)carbamoyl)cyclohexane-1-carboxylic acid]
> 1000	> 1000		CC(C)c1c(Nc2ccc([C@H](N(C)C(=O)C3CCS(=O)(=O)CC3)C(F)(F)F)cc2)cnn1C [Compound 1.5]
< 100	100 to 1000		CC(=O)N1CCC(C(=O)N(C)[C@@H](c2ccc(Nc3cnn(-c4ccccn4)c3C(F)(F)F)cc2)C(F)(F)F)CC1 [Compound 1.29]
100 to 1000	100 to 1000		CO[C@@H](C)c1c(Nc2ccc([C@H](N(C)C(=O)C3CCN(C(C)=O)CC3)C(F)(F)F)cc2)cnn1-c1cccnc1 [Compound 1.34]
< 100	< 100		CC(=O)N1CCC(C(=O)N(C)[C@@H](c2ccc(Nc3cnn(-c4cccc(C#N)c4)c3C(F)(F)F)cc2)C(F)(F)F)CC1 [Compound 1.28]
< 100	< 100		CN(C(=O)[C@H]1C[C@H](C(=O)O)C1)[C@@H](c1ccc(Nc2cnn(-c3ccccc3)c2C(F)(F)F)cc1)C(F)(F)F [Compound 2.13]
< 100	< 100		CN(C(=O)C1CCS(=O)(=O)CC1)[C@@H](c1ccc(Nc2cnn(-c3ccncn3)c2C(F)(F)F)cc1)C(F)(F)F [Compound 1.20]
< 100	< 100		CC(=O)N1CCC(C(=O)N(C)[C@@H](c2ccc(Nc3cnn(-c4cccnc4)c3C(F)(F)F)cc2)C(F)(F)F)CC1 [Compound 1.27]
< 100	< 100		CN(C(=O)[C@H]1C[C@H](C(=O)O)C1)[C@@H](c1ccc(Nc2cnn(-c3ccccn3)c2C(F)(F)F)cc1)C(F)(F)F [Compound 2.11, (1r,3r)-3-{methyl[(1S)-2,2,2-trifluoro-1-(4-{[1-(pyridin-2-yl)-5-(trifluoromethyl)-1H-pyrazol-4-yl]amino}phenyl)ethyl]carbamoyl}cyclobutane-1-carboxylic Acid Amine]
	> 1000	100 to 1000	(1r,4S)—N—((S)-1-(4-((4-cyclopropyl-1,5-naphthyridin-3-yl)amino)phenyl)-2,2,2-trifluoroethyl)-N-methyl-4-(1H-tetrazol-5-yl)cyclohexane-1-carboxamide [Compound 3.1]
< 100	100 to 1000		CN(C(=O)C1CCS(=O)(=O)CC1)[C@@H](c1ccc(Nc2cnn(-c3ccncc3)c2C(F)(F)F)cc1)C(F)(F)F [Compound 1.14]
> 1000	> 1000		CN(C(=O)C1CCS(=O)(=O)CC1)[C@@H](c1ccc(Nc2cnn(-c3ncccn3)c2C(F)(F)F)cc1)C(F)(F)F [Compound 1.18]
100 to 1000	< 100		CC(O)c1c(Nc2ccc([C@H](N(C)C(=O)C3CCS(=O)(=O)CC3)C(F)(F)F)cc2)cnn1-c1cccnc1 (some centres unmarked) [Compound 1.24]
< 100	< 100		CC(=O)N1CC(C(=O)N(C)[C@@H](c2ccc(Nc3cnn(-c4ccccn4)c3C(F)(F)F)cc2)C(F)(F)F)C1 [Compound 1.37]
100 to 1000	100 to 1000		CC(=O)N1CC(C(=O)N(C)[C@@H](c2ccc(Nc3cnn(-c4cccc(C#N)c4)c3C3CC3)cc2)C(F)(F)F)C1 [Compound 1.39]
100 to 1000	100 to 1000		CN(C(=O)C1CCS(=O)(=O)CC1)[C@@H](c1ccc(Nc2cnn(-c3ccccc3C#N)c2C(F)(F)F)cc1)C(F)(F)F [Compound 1.16]
< 100	< 100		CN(C(=O)C1CCS(=O)(=O)CC1)[C@@H](c1ccc(Nc2cnn(-c3cccnn3)c2C(F)(F)F)cc1)C(F)(F)F [Compound 1.21]
> 1000	> 1000		CN(C(=O)C1CCS(=O)(=O)CC1)[C@@H](c1ccc(Nc2cnn(CC(C)(C)C)c2C(F)(F)F)cc1)C(F)(F)F [Compound 1.12]
100 to 1000	100 to 1000		CN(C(=O)[C@H]1CC[C@H](C(=O)O)CC1)[C@@H](c1ccc(Nc2cnn(-c3ccncc3)c2C(F)(F)F)cc1)C(F)(F)F [Compound 2.2]

From patent US20250326738A1, “MALT1 Modulators and Uses Thereof” (Rarefied Biosciences, Inc., priority 2022, published 2025)
